Test results as given in patent US20220380430A1, “Non-Transgenic Functional Rescue of Neuropeptides” (Worcester Polytechnic Institute, priority 2021, published 2022).
No end group written: not given here.

Key:
[1] = system: flp-3 lof males; assay: Drop avoidance assay to ascr #8 after FLP-3 peptide rescue-by-feeding; format: in vivo, C. elegans; settings: flp-3 lof males raised on peptide; 1 μM ascr #8; in words
Method: To identify which FLP-3 peptides are required for male avoidance of ascr #8, a peptide feeding approach https://www.nature.com/articles/s42003-021-02547-7-ref-CR59 was adopted, similar to RNAi feeding (FIG. 16A). Using Gateway Cloning technology, FLP-3 peptide coding sequences were inserted into a bacterial expression vector. As a control, first the FLP-3 peptides were tested that are still encoded in the ok3625 allele which are insufficient to drive the proper ascr #8 response in vivo: FLP-3-1 (SPLGTMRFamide) (SEQ ID NO: 10) and FLP-3-4 (NPLGTMRFamide) (SEQ ID NO: 11). Then flp-3 lof animals were reared on lawns of bacteria expressing the rescue constructs, and their progeny were assayed for avoidance (FIG. 16B-FIG. 16D).
Assays were performed as described previously in Chute, C. D. & Srinivasan, J. Semin. Cell Dev. Biol. 33, 18-24 (2014); Chute, C. D. et al. Nat. Commun. 10, 3186 (2019); and Hilliard, M. A. et al., EMBO J. 23, 1101-1111 (2004). Fifty to sixty L4 worms were segregated by sex and stored at 20° C. for 5 h to overnight to be assayed as young adults. One to four hours prior to the assay, the lids of unseeded plates were tilted to allow any excess moisture to evaporate off the plates. At the time of the assay, 10 or more animals were transferred onto each of the dried, unseeded plates. A drop of either water or 1 μM ascr #8 was placed on the tail of forward moving animals, and their response was scored as either an avoidance response, or no response. The total number of avoidances was divided by the total number of drops to generate an avoidance index for that plate. This was repeated for at least 10 plates over at least three different days.
SCRAMBLE control or FLP-3 peptide constructs were grown overnight in LB media containing […] ampicillin at 37° C. and diluted to an OD600 of 1.0 prior to seeding on NGM plates containing […] ampicillin and 1 mM IPTG. The 75 μL lawn was left to dry and grow overnight at room temperature before three L4 animals were placed on the plates. Males were selected for testing in the same manner as described above but were isolated onto plates also seeded with the same peptide on which they had been reared. Animals were then assayed using either the avoidance assay or single worm assay.

[2] = system: him-5 and pdf-1 males; assay: Excursion (food-leaving) assay after rescue-by-feeding; format: in vivo, C. elegans; settings: Probability of Leaving per hour, beyond 35 mm from food
Description: We quantified the behavioral activity of pdf-1 lof males using a food-leaving behavior as previously described. Individuals were placed on a small food spot, and track patterns were scored at three different time points (2, 6, 24 hrs) (FIG. 4A). “Never left food” indicate the absence of tracks outside the food spot. […] “Major excursion” indicates the presence of tracks past the 1 cm boundary (FIG. 1B, Excursion Assay). The food-leaving behavior was quantified as a measure of mate-searching behavior. In this behavior well-fed males left food in search of mates and the data is represented as a Probability of Leaving (PL) (FIG. 7A).
The mate searching behavior of pdf-1 mutants was quantified in a food leaving assay. him-5 animals were used as wild-type control to ensure the presence of males. him-5 and pdf-1 animals were fed OP50, scramble peptide, PDF-1A, PDF-1B, or a 1:1 mixture of PDF-1A and PDF-1B cultures. Four to six larval L4 hermaphrodites were passed onto an NGM plate containing […] AMP and 1 mM IPTG with 75 μL of peptide. These worms were grown at 20° C. for about 4 days until the male progeny of the initial L4 worms were young adults. The day prior to the assay, young adult male pdf-1 or him-5 worms were singled onto 60 mm plates containing lawns of either OP50 (NGM plates) or appropriate peptide cultures (NGM containing […] AMP and 1 mM IPTG). To determine the mate searching effects of pdf-1, we performed a food-leaving assay as described previously in Barrios, A., et al., Nat Neurosci 15, 1675-1682 (2012); Lipton, J., et al., The Journal of neuroscience: the official journal of the Society for Neuroscience 24, 7427-7434 (2004); Ryan, D. A. et al. Curr Biol 24, 2509-2517 (2014), with modifications. In this assay, individuals were placed on a small food spot, and track patterns were scored at the indicated times. Assay plates were prepared one day prior to assaying on 100 mm plates with 10 mL of Leaving Assay media (25 mM KPO4 (pH 6.0), 1 mM MgSO4, 1 mM CaCl2), 50 mM NaCl, 2.5 g/L Peptone, 17 g/L Agar). On center of plate, 7 μL of OP50 was added. Plates were lightly covered and stored at room temperature overnight (˜20° C., <40% humidity).
On the day of the assay, a single male was plated on the assay plate and placed in a dark, 20° C. incubator. At 2, 6, and 24 hours after the worms are plated, plates were scored for male worm tracks. Scored were separated into binned ranges. “Never left food” indicates the absence of tracks outside the food spot. […] “Major excursion” indicates the presence of tracks past the 1 cm boundary. The food leaving behavior was quantified at three different time points (2, 6, and 24 hours). (FIG. 4A, FIG. 7A, Table IV).
The mate searching defect of pdf-1 was quantified as a Probability of Leaving per hour (PL) (FIG. 4B, FIG. 7B).
The assay was performed across at least two days per condition, with at least n=50, wherein each assay plate with one male is equal to n=1. In all experiments, the investigators were blinded to genotype. Worm in the >35 mm from the center of food bin were scored as “leavers”. The probability of leaving per hour (Probability of Leaving (PL)) was calculated using an R script developed in Barrios et al., with assistance by (Personal Communications to Barrios, 2020). PL was calculated by the “hazard obtained by fitting an exponential parametric survival model to the censored data using maximum likelihood” (Table IV). The PLh-1 values for all pdf-1 animals fed scramble or peptide rescue were compared to him-5 worms fed scramble using an ANOVA followed by Bonferroni's multiple comparison (FIG. 4B, FIG. 7C).

NSKLHRGGGRSRTSGSTGSMASHARGSPGLQ-NH2 [SCRAMBLE, scramble control peptide expressed in E. coli DH5α, negative control, reference compound]
rescue of avoidance phenotype to ascr #8 (Avoidance Index) [1]: does not affect behavior | PL (confidence interval) ([2]; him-5 males): 0.07727 (0.06532, 0.09141) | PL (confidence interval) ([2]; pdf-1 males): 0.03538 (0.02747, 0.04556)
